Legend:
Type in all cases: cell-based
human TLR2 = target: T1, human TLR2 (Homo sapiens, UniProt O60603); assay: NF-κB activation (secreted alkaline phosphatase reporter) in HEK293 cells expressing human TLR2; conditions: HEK293/hTLR2 cell line; polynucleotide final concentration 10 μg/mL; 16-20 hours
T1 construct: host or cells: HEK293
Procedure: (§1) Toll-like receptors (TLR) are known to interact with a number of natural and synthetic molecules that can function as immune adjuvants. Examples of these molecules are Poly (I:C) polynucleotides, lipopolysaccharide and CpG-containing polynucleotides. The interaction of non-DNA base-containing polynucleotides (SEQ ID NOs: 1-3) to interact with TLR and induce down-stream signaling was tested by assessing NF-κB activation in HEK293 cells expressing human TLR2, 3, 4, 5, 7, 8 and 9. TLR engagement was determined by measurement of secreted alkaline phosphatase, under the control of a reporter inducible by NF-κB. Appropriate positive controls were used for each TLR. The non-DNA base-containing polynucleotides were dissolved in sterile water at a concentration of 100 μg/mL, and used at a final concentration of 10 μg/mL. HEK293 cells containing the appropriate TLR and NF-κB reporting system (InvivoGen, San Diego, Calif., USA) were placed in wells of 96 well plates (25,000-50,000 cells, in a final volume of 200 μL medium designed for the detection of NF-κB induced secreted alkaline phosphatase expression), and incubated with non-DNA base-containing polynucleotides or positive controls for 16-20 hours. TLR activating activity was determined by measurement of absorbance at 650 nm wavelength using a Coulter AD340C absorbance detector. The results shown are expressed as Optical Density (OD).

human TLR4 = target: T2, human TLR4 (Homo sapiens, UniProt O00206+Q9Y6Y9); assay: NF-κB activation (secreted alkaline phosphatase reporter) in HEK293 cells expressing human TLR4; conditions: HEK293/hTLR4 cell line; polynucleotide final concentration 10 μg/mL; 16-20 hours
T2 construct: host or cells: HEK293
Procedure: as §1

human PBMC = assay: Induction of cytokines and chemokines from human PBMC, comparison with CpG polynucleotides (Milliplex MAP kit); conditions: for Cytokine, IL-6 / Cytokine, IL-10 / Cytokine, MCP-1 / Cytokine, RANTES (CCL5): human PBMC culture supernatant, 48 h, final concentration 10 μg/mL; for Chemokine (MCP-1, RANTES) inducing activity towards human PBMC (in words) / Interleukin (cytokine) inducing activity towards human PBMC (in words): in comparison to LPS and MCC, Table 14
Procedure: LPS and MCC were included as positive controls as described in Example 7. PBMC were isolated from whole blood using standard Ficoll-Paque Plus (GE Healthcare Life Sciences, Baie d'Urfé, QC, Canada) gradient centrifugation, and placed in tissue culture plates at a concentration of 1×10^6 cells/mL (total volume: 1 mL in RPMI 1640 medium containing 10% heat-inactivated FBS (both from Wisent, St-Bruno, QC, Canada) and 50 μg/mL gentamycin sulfate (Sigma-Aldrich Canada, Oakville, ON, Canada). Non-DNA base-containing polynucleotide SEQ ID NOs: 1, 2, 3, 4, 5, 6, 7, 8 and 9 were added to separate wells to give a final concentration of 10 μg/mL, LPS was added to give a final concentration of 10 μg/mL, and the non-CpG 4010, CpG 2336, CpG 2429 and CpG 7909 polynucleotides, SEQ ID NOs: 31, 33, 35 and 34, respectively, were added to give a final concentration of 10 μg/mL.
The cells were then cultivated for 48 h. Cytokines (interleukins IL-6 and IL-10, chemokines MCP-1 and RANTES) in the culture supernatant were measured using a Milliplex™ MAP kit (Millipore Corporation, Billerica, Mass., USA) on a Bio-Plex 200 system (Bio-Rad Laboratories, Hercules, Calif., USA). MCP-1, also known as monocyte chemotactic protein, is an essential chemokine required for effective monocyte and myeloid dendritic cell activation and trafficking across endothelial and epithelial barriers (see for example Henkel et al, 2004 Ann. Neurol. 55:221-235), and RANTES (Regulated on Activation, Normal T cell Expressed and Secreted, now more commonly known as CCL5) is produced by memory phenotype T cells and is chemotactic for and activates T-cells (see for example Swanson et al, 2002 Immunity 17:605-615).

human TLR3 = target: T3, human TLR3 (Homo sapiens, UniProt O15455); assay: NF-κB activation (secreted alkaline phosphatase reporter) in HEK293 cells expressing human TLR3; conditions: HEK293/hTLR3 cell line; polynucleotide final concentration 10 μg/mL; 16-20 hours
T3 construct: host or cells: HEK293
T3 sequence (O15455 24-904): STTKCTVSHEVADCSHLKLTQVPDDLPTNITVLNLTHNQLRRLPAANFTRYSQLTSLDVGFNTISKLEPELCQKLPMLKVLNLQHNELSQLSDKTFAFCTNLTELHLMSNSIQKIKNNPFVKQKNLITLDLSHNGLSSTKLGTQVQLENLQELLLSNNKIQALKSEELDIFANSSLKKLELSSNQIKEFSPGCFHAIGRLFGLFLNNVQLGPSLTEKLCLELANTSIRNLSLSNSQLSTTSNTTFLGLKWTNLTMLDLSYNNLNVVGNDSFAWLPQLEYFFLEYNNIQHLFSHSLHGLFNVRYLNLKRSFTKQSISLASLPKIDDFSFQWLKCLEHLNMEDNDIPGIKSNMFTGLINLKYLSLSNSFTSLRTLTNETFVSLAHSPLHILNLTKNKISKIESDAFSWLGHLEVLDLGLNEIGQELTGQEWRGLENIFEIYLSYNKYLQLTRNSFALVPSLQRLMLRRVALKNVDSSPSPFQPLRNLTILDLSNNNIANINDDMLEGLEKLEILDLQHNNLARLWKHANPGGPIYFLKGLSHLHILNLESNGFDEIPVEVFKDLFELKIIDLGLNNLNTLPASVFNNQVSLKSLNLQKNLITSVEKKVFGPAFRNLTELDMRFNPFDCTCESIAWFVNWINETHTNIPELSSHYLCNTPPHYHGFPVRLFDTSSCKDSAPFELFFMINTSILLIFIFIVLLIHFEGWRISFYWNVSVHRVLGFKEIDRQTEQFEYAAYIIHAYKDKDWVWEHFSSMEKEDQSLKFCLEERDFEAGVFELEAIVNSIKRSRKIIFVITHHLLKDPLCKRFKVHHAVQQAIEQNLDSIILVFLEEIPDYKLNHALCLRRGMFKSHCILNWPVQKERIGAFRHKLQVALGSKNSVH
Procedure: as §1

T2 sequence (Q9Y6Y9 17-160): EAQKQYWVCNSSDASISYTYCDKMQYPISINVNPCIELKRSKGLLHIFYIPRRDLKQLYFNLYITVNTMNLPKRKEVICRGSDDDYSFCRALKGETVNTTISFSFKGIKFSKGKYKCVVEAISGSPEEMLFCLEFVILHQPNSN
T2 sequence (O00206 24-839): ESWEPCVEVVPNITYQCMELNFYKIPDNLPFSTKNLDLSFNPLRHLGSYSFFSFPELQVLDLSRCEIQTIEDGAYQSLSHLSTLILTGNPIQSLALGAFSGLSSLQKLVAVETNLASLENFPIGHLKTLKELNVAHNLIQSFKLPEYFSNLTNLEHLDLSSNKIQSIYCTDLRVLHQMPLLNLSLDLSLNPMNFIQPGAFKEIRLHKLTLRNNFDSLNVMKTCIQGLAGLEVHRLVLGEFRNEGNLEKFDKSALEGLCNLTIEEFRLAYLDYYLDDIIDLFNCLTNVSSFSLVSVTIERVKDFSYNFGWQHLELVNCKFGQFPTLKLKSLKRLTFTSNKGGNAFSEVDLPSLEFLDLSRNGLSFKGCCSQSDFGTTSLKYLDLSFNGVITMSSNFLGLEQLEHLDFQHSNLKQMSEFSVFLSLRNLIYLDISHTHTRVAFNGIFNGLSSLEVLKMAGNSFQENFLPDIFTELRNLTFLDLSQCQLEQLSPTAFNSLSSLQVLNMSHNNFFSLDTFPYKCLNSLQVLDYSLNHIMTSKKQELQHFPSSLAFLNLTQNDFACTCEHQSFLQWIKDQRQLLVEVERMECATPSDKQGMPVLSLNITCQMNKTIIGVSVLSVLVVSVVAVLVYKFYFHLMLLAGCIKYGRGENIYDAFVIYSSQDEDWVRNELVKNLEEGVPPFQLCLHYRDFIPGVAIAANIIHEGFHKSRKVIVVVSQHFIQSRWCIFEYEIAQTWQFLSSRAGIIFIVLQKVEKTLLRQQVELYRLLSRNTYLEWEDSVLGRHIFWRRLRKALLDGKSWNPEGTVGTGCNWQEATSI
T1 sequence (O60603 21-784): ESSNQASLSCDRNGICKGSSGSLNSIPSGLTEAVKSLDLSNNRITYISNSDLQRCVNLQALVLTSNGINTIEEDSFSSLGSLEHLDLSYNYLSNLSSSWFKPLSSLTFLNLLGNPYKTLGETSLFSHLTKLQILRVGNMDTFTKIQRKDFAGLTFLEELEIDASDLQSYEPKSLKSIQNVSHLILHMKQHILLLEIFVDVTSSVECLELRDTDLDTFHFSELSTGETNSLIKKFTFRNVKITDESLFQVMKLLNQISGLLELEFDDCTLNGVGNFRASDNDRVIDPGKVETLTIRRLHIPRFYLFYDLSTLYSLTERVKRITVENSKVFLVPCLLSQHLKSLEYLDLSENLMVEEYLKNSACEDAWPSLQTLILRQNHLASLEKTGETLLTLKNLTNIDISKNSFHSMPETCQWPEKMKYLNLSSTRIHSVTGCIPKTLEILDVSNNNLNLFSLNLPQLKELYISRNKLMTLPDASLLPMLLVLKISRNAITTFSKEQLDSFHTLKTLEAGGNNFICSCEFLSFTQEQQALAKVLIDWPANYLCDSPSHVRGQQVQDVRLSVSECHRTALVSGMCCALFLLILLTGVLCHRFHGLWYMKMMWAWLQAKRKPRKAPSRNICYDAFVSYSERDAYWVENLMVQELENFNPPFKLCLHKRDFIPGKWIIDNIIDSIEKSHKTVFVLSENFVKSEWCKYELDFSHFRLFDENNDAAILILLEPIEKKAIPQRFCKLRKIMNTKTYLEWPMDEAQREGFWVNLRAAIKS

| Substance | TLR activation, Optical Density at 650 nm, hTLR2 (human TLR2) | TLR activation, Optical Density at 650 nm, hTLR4 (human TLR4) | Cytokine, IL-6 (human PBMC) | Cytokine, IL-10 (human PBMC) | Cytokine, MCP-1 (human PBMC) | Cytokine, RANTES (CCL5) (human PBMC) | Chemokine (MCP-1, RANTES) inducing activity towards human PBMC (in words) (human PBMC) | Interleukin (cytokine) inducing activity towards human PBMC (in words) (human PBMC) | TLR activation, Optical Density at 650 nm, hTLR3 (human TLR3) |
| --- | --- | --- | --- | --- | --- | --- | --- | --- | --- |
| NebGGTGNeb (DNA NGGTGN; Nebularine at both ends, sugar and linkages not given here, further chemistry not given here) [SEQ ID NO: 1, 5′-OH, 3′-OH non-DNA base-containing polynucleotide] | 0.093 | 0.050 | 26 pg/mL | 0 pg/mL | 160 pg/mL | 93 pg/mL | marginal or no | marginal or no | 0.055 |
| UUGTUU [SEQ ID NO: 2] | 0.095 | 0.052 | 6 pg/mL | 0 pg/mL | 196 pg/mL | 66 pg/mL | marginal or no | marginal or no | 0.056 |
| IIGTII [SEQ ID NO: 3] | 0.095 | 0.050 | 1 pg/mL | 0 pg/mL | 57 pg/mL | 72 pg/mL | marginal or no | marginal or no | 0.057 |

Source: patent publication US20110111016A1, “NON-DNA BASE-CONTAINING POLYNUCLEOTIDE COMPOSITIONS AND THEIR USE FOR THE MODULATION OF IMMUNE RESPONSES” (priority 2009, published 2011)
